Patent publication US20240075017A1 (priority 2021, published 2024)
“Also recorded” adds a separate entry of the source.

Tests used:
[1] = tested on: IP-10; experiment: Secreted IP10 by ELISA in NHBEs; assay type: cell-based, human
[2] = tested on: IL6; assay type: cell-based, human; details: NHBEs, 0.75 μM, mock-, SARS-CoV or SARS-CoV-2 infected, 24 h post-infection
[3] = tested on: SARS-CoV-2-GFP; assay type: cell-based
[4] = tested on: SARS-CoV (strain Frankfurt 1); assay type: cell-based; details: A549-ACE2 cells, 6 h pre-treatment, 24 hours infection
[5] = tested on: NHBE cells; assay type: cell-based, human
[6] = tested on: SARS-CoV-2 (strain MUC-IMB-1); experiment: NP immunofluorescence in primary normal human bronchial cells (NHBE) ex vivo; assay type: cell-based; details: 6 h pre-treatment, MOI 3, 24 hours post-infection
[7] = tested on: SARS-CoV-2 (strain MUC-IMB-1); assay type: cell-based
[8] = tested on: SARS-CoV; details: described previously (ref. 70); cited from earlier work
[9] = tested on: wild-type (wt) SARS-CoV-2; experiment: Plaque assay of released viral progeny from pre-treated Vero E6 cells; assay type: cell-based; details: 6 h pre-treatment, range of concentrations, MOI 0.01, 48 hours post-infection
[10] = tested on: SARS-CoV-2 (strain MUC-IMB-1); experiment: Viral nucleoprotein (NP) western blot in A549-ACE2 cells; assay type: cell-based

Nc1nccc2c1ncn2[C@@H]1C=C(CO)[C@@H](O)[C@H]1O [DZNep, 3-deazaneplanocin A]
IP-10 secretion by ELISA [1]: IP-10 secretion was enhanced | IL6 secretion/expression by ELISA [2]: significantly reduced IL6 expression in all tested conditions | antiviral activity: growth of SARS-CoV-2-GFP reporter virus [3]: have antiviral activity against SARS-CoV-2; also recorded: particularly strong antiviral efficacy | role of STAT1 dependent interferon response in SARS-CoV-2 inhibition by the compound ([3]; STAT1 KO vs NTC A549-ACE2 cells, 6 h pre-treatment with DZNep and/or interferon alpha): does not play a major role in SARS-CoV-2 inhibition in vitro | antiviral effect against SARS-CoV, expression of viral protein N [4]: do not observe an antiviral effect | abundance of innate immunity related factors (e.g. IL1RN, C3 and TNFAIP3/A20) [5]: DZNep-dependent changes in abundance | factors counteracting fibrotic processes (e.g. ELAFIN, SLPI and ECM1) [5]: up-regulation of factors counteracting fibrotic processes | factors of extrinsic coagulation cascade (e.g. F3 and TFPI2) and plasminogen activation system (e.g. PAI1, PLAT, PLAU) [5]: reduction of factors of extrinsic coagulation cascade | pulmonary fibrosis biomarkers (e.g. COL4A1, MMP14 and SERPINE1) [5]: reduction of pulmonary fibrosis biomarkers | inhibition of SARS-CoV-2 in primary human ex-vivo infection model [6]: potent inhibitor of SARS-CoV-2 | expression of viral proteins (SARS-CoV-2) by mass spectrometry [7]: clear reduction | abundance changes of NP and spike (S), SARS-CoV-2 ([7]; A549-ACE2 (0.75 μM, 24 h) and NHBEs (1.5 μM, 36 h)): DZNep-dependent inhibition of SARS-CoV-2 | antiviral activity against SARS-CoV in an in vivo infection model [8]: did not show antiviral activity against SARS-CoV | released viral progeny in the supernatant by plaque assay [9]: dose-dependent suppression of the wt SARS-CoV-2 | virus nucleoprotein (NP) expression by western blot [10]: potent antiviral effect against SARS-CoV-2

CNc1ccc(/C=C/c2c(F)cccc2Cl)cc1 [FIDAS-5, (E)-4-(2-chloro-6-fluorostyryl)-N-methylaniline]
antiviral activity of co-treatment with DZNep [3]: synergistic antiviral activity | antiviral activity: growth of SARS-CoV-2-GFP reporter virus [3]: have antiviral activity against SARS-CoV-2 | released viral progeny in the supernatant by plaque assay [9]: dose-dependent suppression of the wt SARS-CoV-2

CN(C)CCc1nnc2cc(-c3ccccc3)c3cc(Cl)ccc3n12 [PF-9366, 2-(7-Chloro-5-phenyl-[1,2,4]triazolo[4,3-a]quinolin-1-yl)-N,N-dimethylethan-1-amine]
antiviral activity: growth of SARS-CoV-2-GFP reporter virus [3]: have antiviral activity against SARS-CoV-2

CNC(=O)[C@@H](NC(=O)[C@H](CC(C)C)[C@H](O)C(=O)NO)C(C)(C)C [marimastat]
influence of DZNep co-treatment on the antiviral efficacy of the compound [3]: does not negatively influence the antiviral efficacy

CC(C)NC[C@@H](C(=O)N1CCN(c2ncnc3c2[C@H](C)C[C@H]3O)CC1)c1ccc(Cl)cc1 [ipatasertib]
influence of DZNep co-treatment on the antiviral efficacy of the compound [3]: does not negatively influence the antiviral efficacy

CCN(CCO)CCCC(C)Nc1ccnc2cc(Cl)ccc12 (stereo not drawn) [Hydroxychloroquine]
influence of DZNep co-treatment on the antiviral efficacy of the compound [3]: does not negatively influence the antiviral efficacy

Nc1ncnc2c1ncn2C[C@@H](O)[C@@H](O)C(=O)O [DER, D-eritadenine]
antiviral activity: growth of SARS-CoV-2-GFP reporter virus [3]: have antiviral activity against SARS-CoV-2

IFN-α
synergy of combination with DZNep (combination index, CI) [3]: strong synergism

Cc1nc2ccc(-c3c(Nc4ccccn4)[nH]c4c(-c5ccccc5)c(-c5ccccc5)nn4c3=O)cc2s1 [MAT2A inhibitor 1]
antiviral activity: growth of SARS-CoV-2-GFP reporter virus [3]: have antiviral activity against SARS-CoV-2

NC(CCSCCCCC(=O)O)C(=O)O (racemic) [CBHcy, S-(4-Carboxybutyl)-D,L-homocysteine]
antiviral activity: growth of SARS-CoV-2-GFP reporter virus [3]: have antiviral activity against SARS-CoV-2 | released viral progeny in the supernatant by plaque assay [9]: dose-dependent suppression of the wt SARS-CoV-2
